Here are results for 2 compounds from ChEMBL document CHEMBL5375952, “Discovery of Novel 8-Hydroxyquinoline Derivatives with Potent In Vitro and In Vivo Antifungal Activity” (J Med Chem, 2023).

Calls of active or inactive are those of the source.

Data set [1] relates to Candida albicans. Put plainly: Inhibition of biofilm formation of Candida albicans SC5314 at 16 ug/ml incubated for 24 hrs by XTT assay relative to control. The format is functional.
The test system of data set [2] is Candida albicans. The data set is described as follows: Synergistic antifungal activity against FLC-resistant Candida albicans 11 assessed as MIC of FLC incubated for 48 hrs by broth microdilution method. The format is functional. (Dilution methods test growth across graded concentrations, often in twofold steps.)
The subject of data set [3] is Candida albicans. The data set is described as follows: Synergistic antifungal activity against FLC-resistant Candida albicans 512681 assessed as fractional inhibitory concentration index incubated for 48 hrs in presence of FLC by broth microdilution method. The format is functional.
For data set [4], the system named is Candida albicans. The data set is described as follows: Synergistic antifungal activity against FLC-resistant Candida albicans 304103 assessed as MIC of FLC incubated for 48 hrs by broth microdilution method. The format is functional.
Data set [5] has as its system Candida albicans. The data set is described as follows: Synergistic inhibition of biofilm formation of Candida albicans SC5314 incubated for 24 hrs in presence of FLC by XTT assay. The format is functional, organism-based. The conditions noted are these: dose <= 16.0 µg/ml. On the technique in general: Tetrazolium assays rely on reduction of a dye to a coloured formazan, in cell work by metabolically active cells.

For data set [6], the system named is Candida albicans. The data set is described as follows: Synergistic antifungal activity against FLC-resistant Candida albicans 540 assessed as fungal growth inhibition incubated for 48 hrs in presence of FLC by broth microdilution method. The format is functional.
Data set [7] is described as follows: Toxicity in C57BL/6 mouse infected with Candida albicans SC5314 assessed as animal survival at 2 mg/kg, ip measured after 20 days in presence of FLC relative to control. The format is organism-based. The conditions noted are these: in vivo, 480 h, time 20 day.
Data set [8] can be described thus: MRT (0 to t) in Sprague-Dawley rat at 5 mg/kg, po by LC-MS/MS analysis. The format is ADME, organism-based. The conditions noted are these: in vivo.
In data set [9] the test system is Candida albicans. Put plainly: Synergistic antifungal activity against FLC-resistant Candida albicans 249 assessed as fractional inhibitory concentration index incubated for 48 hrs in presence of FLC by broth microdilution method. The format is functional.
For data set [10], the system named is Candida albicans. The data set is described as follows: Synergistic antifungal activity against FLC-resistant Candida albicans 540 assessed as MIC of FLC incubated for 48 hrs by broth microdilution method. The format is functional.
Data set [11] relates to Candida albicans. Put plainly: Synergistic antifungal activity against FLC-resistant Candida albicans 14 assessed as MIC of FLC incubated for 48 hrs by broth microdilution method. The format is functional.
The test system of data set [12] is Candida albicans. The data set is described as follows: Synergistic antifungal activity against FLC-resistant Candida albicans 710513 assessed as MIC of FLC incubated for 48 hrs by broth microdilution method. The format is functional.
The test system of data set [13] is Candida albicans. Put plainly: Synergistic antifungal activity against FLC-resistant Candida albicans 5740 assessed as MIC of FLC incubated for 48 hrs by broth microdilution method. The format is functional.
Data set [14] concerns Candida albicans. The data set is described as follows: Synergistic inhibition of biofilm formation of Candida albicans SC5314 at 2 ug/ml incubated for 24 hrs in presence of 0.0625 ug/ml of FLC by XTT assay relative to control. The format is functional.
The subject of data set [15] is Candida albicans. The data set is described as follows: Synergistic antifungal activity against FLC-resistant Candida albicans 710452 assessed as fractional inhibitory concentration index incubated for 48 hrs in presence of FLC by broth microdilution method. The format is functional.
The nature of data set [16]: Clearance in Sprague-Dawley rat at 2 mg/kg, iv by LC-MS/MS analysis. The format is ADME, organism-based. The conditions noted are these: in vivo.
Data set [17] concerns Candida albicans. The data set is described as follows: Synergistic antifungal activity against FLC-resistant Candida albicans 100 assessed as MIC of FLC incubated for 48 hrs by broth microdilution method. The format is functional.
Data set [18] has as its system Candida albicans. Put plainly: Synergistic antifungal activity against FLC-resistant Candida albicans 17 assessed as fungal growth inhibition incubated for 48 hrs in presence of FLC by broth microdilution method. The format is functional.
In data set [19] the test system is Candida albicans. The data set is described as follows: Synergistic antifungal activity against FLC-resistant Candida albicans 646 assessed as MIC of FLC incubated for 48 hrs by broth microdilution method. The format is functional.
Data set [20] relates to Candida albicans. The data set is described as follows: Synergistic antifungal activity against FLC-resistant Candida albicans 100 assessed as fungal growth inhibition incubated for 48 hrs in presence of FLC by broth microdilution method. The format is functional.
The subject of data set [21] is Candida albicans. Put plainly: Synergistic antifungal activity against FLC-resistant Candida albicans 12 assessed as MIC of FLC incubated for 48 hrs by broth microdilution method. The format is functional.
Data set [22] has as its system Candida albicans. The data set is described as follows: Synergistic antifungal activity against FLC-resistant Candida albicans 8 assessed as fungal growth inhibition incubated for 48 hrs in presence of FLC by broth microdilution method. The format is functional.
In data set [23] the test system is Candida albicans. The data set is described as follows: Synergistic antifungal activity against FLC-resistant Candida albicans 605141 assessed as fractional inhibitory concentration index incubated for 48 hrs in presence of FLC by broth microdilution method. The format is functional.
Data set [24] concerns Candida albicans. Put plainly: Synergistic antifungal activity against FLC-resistant Candida albicans 14 assessed as fungal growth inhibition incubated for 48 hrs in presence of FLC by broth microdilution method. The format is functional.
Data set [25] in a line: Half life in Sprague-Dawley rat at 5 mg/kg, po by LC-MS/MS analysis. The format is ADME, organism-based. The settings on record: in vivo.
Data set [26] concerns Candida albicans. The data set is described as follows: Synergistic antifungal activity against FLC-resistant Candida albicans 241 assessed as fungal growth inhibition incubated for 48 hrs in presence of FLC by broth microdilution method. The format is functional.
Data set [27] in a line: AUC (0 to infinity) in Sprague-Dawley rat at 5 mg/kg, po by LC-MS/MS analysis. The format is ADME, organism-based. The arrangement: dose 5 mg/kg, route po. The settings on record: in vivo.
Data set [28] deals with Candida albicans. Put plainly: Synergistic inhibition of biofilm formation of Candida albicans SC5314 at 0.5 ug/ml incubated for 24 hrs in presence of 1 ug/ml of FLC by XTT assay relative to control. The format is functional.
Data set [29] relates to Candida albicans. The data set is described as follows: Synergistic antifungal activity against FLC-resistant Candida albicans 710506 assessed as fractional inhibitory concentration index incubated for 48 hrs in presence of FLC by broth microdilution method. The format is functional.
Data set [30] deals with Candida albicans. Put plainly: Synergistic antifungal activity against FLC-resistant Candida albicans 953 assessed as MIC of FLC incubated for 48 hrs by broth microdilution method. The format is functional.
Data set [31] in a line: MRT (0 to t) in Sprague-Dawley rat at 2 mg/kg, iv by LC-MS/MS analysis. The conditions noted are these: in vivo. The format is ADME, organism-based.
For data set [32], the system named is Candida albicans. Put plainly: Synergistic antifungal activity against FLC-resistant Candida albicans 379 assessed as fractional inhibitory concentration index incubated for 48 hrs in presence of FLC by broth microdilution method. The format is functional.
Data set [33] concerns Candida albicans. The data set is described as follows: Synergistic antifungal activity against FLC-resistant Candida albicans 710554 assessed as fractional inhibitory concentration index incubated for 48 hrs in presence of FLC by broth microdilution method. The format is functional.
For data set [34], the system named is Candida albicans. The data set is described as follows: Synergistic antifungal activity against FLC-resistant Candida albicans 385 assessed as fractional inhibitory concentration index incubated for 48 hrs in presence of FLC by broth microdilution method. The format is functional.
In data set [35] the test system is Candida albicans. The data set is described as follows: Inhibition of hypha formation in Candida albicans SC5314 at 8 to 16 ug/ml incubated for 3 hrs by inverted phase contrast microscopy. The format is functional, organism-based. The conditions noted are these: dose 8-16 µg/ml.
The test system of data set [36] is Candida albicans. The data set is described as follows: Synergistic antifungal activity against FLC-resistant Candida albicans 385 assessed as fungal growth inhibition incubated for 48 hrs in presence of FLC by broth microdilution method. The format is functional.
Data set [37] has as its system Candida albicans. Put plainly: Synergistic antifungal activity against FLC-resistant Candida albicans 646 assessed as fractional inhibitory concentration index incubated for 48 hrs in presence of FLC by broth microdilution method. The format is functional.
Data set [38] deals with Voltage-gated inwardly rectifying potassium channel KCNH2 (Homo sapiens, UniProt Q12809). The data set is described as follows: Inhibition of hERG measured for 120 secs by electrophysiological method. The format is toxicity. The conditions noted are these: 2 min, time 120 sec. A general note: Block of hERG is tested as a sign of cardiac risk.
For data set [39], the system named is Candida albicans. Put plainly: Synergistic antifungal activity against FLC-resistant Candida albicans 10 assessed as MIC of FLC incubated for 48 hrs by broth microdilution method. The format is functional.
Data set [40] can be described thus: C0 in Sprague-Dawley rat at 2 mg/kg, iv by LC-MS/MS analysis. The format is ADME, organism-based. The settings on record: in vivo.
Data set [41] deals with Candida albicans. Put plainly: Antifungal activity against Candida albicans SC5314 assessed as fungal growth inhibition incubated for 48 hrs in presence of Cu2+ by broth microdilution method (reference value: […] ug/ml). The format is functional.

Voltage-gated inwardly rectifying potassium channel KCNH2, sequence (Q12809 whole entry): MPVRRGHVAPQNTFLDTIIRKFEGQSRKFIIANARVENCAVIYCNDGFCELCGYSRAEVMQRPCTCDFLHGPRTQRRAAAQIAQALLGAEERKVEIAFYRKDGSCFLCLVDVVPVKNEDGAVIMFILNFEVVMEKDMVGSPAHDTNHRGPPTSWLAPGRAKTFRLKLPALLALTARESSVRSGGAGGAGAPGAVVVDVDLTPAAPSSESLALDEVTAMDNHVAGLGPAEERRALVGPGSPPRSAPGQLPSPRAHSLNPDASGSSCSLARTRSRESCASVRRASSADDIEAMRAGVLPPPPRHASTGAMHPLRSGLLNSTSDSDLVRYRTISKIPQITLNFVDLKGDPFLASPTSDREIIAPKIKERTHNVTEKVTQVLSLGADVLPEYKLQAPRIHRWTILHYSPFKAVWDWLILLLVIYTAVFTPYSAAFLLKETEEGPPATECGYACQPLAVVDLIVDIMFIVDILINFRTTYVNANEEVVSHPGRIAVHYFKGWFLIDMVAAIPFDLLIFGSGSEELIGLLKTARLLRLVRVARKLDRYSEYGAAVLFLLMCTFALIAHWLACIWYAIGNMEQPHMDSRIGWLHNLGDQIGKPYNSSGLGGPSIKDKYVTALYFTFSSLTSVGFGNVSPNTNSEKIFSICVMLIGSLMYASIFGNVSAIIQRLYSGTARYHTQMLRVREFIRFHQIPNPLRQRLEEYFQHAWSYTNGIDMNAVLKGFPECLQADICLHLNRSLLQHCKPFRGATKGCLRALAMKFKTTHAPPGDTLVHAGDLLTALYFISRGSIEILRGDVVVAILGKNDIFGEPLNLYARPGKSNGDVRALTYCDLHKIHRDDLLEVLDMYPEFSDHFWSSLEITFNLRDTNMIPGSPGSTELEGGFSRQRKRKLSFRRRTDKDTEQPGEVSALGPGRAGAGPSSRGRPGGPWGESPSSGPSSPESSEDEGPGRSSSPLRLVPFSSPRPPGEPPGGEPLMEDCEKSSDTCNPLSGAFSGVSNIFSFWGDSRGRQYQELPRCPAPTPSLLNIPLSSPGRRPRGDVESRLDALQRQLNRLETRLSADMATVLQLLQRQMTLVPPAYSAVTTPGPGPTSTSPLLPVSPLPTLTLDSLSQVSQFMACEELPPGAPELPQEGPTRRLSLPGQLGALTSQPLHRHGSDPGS

Consider `CCN(CC)c1ccc(C(NC(=O)C(C)C)c2ccc3cccnc3c2O)cc1` (stereo unspecified), for which the inhibition at 16 µg/mL with Candida albicans [1] was determined as 29.8%. Also, the MIC was 0.25 µg/mL in the data set on Candida albicans [2]; 0.5 µg/mL with Candida albicans [4]; 0.016 µg/mL in the data set with Candida albicans [6]; 0.25 µg/mL in the data set on Candida albicans [10]; 0.25 µg/mL with Candida albicans [11]; 1 µg/mL in the data set on Candida albicans [12]. Moreover, the MIC in the data set on Candida albicans [13] was 2 µg/mL; with Candida albicans [17], 0.25 µg/mL; with Candida albicans [18], 0.016 µg/mL; with Candida albicans [19] it was 1 µg/mL; in the data set on Candida albicans [20], 0.016 µg/mL; in the data set with Candida albicans [21], 1 µg/mL. Further, the MIC in the data set with Candida albicans [22] is 0.031 µg/mL; in the data set with Candida albicans [24] it was 0.016 µg/mL; in the data set on Candida albicans [26] it was 0.016 µg/mL; with Candida albicans [30], 0.125 µg/mL; in the data set with Candida albicans [36], 0.008 µg/mL; with Candida albicans [39], 0.25 µg/mL. Also, the “fractional inhibitory concentration index (FICI)” value in the data set on Candida albicans [3] came out at 0.127; with Candida albicans [9], 0.035; with Candida albicans [15] it was 0.127; in the data set with Candida albicans [23] it was 0.063; in the data set on Candida albicans [29] it was 0.035; with Candida albicans [32], 0.039. Besides, the “fractional inhibitory concentration index (FICI)” value in the data set on Candida albicans [33] is 0.066; with Candida albicans [34], 0.078; with Candida albicans [37], 0.133. Besides, the inhibition result in the data set on Candida albicans [5] is “Dose-Dependent Effect”. Besides, in data set [7], the Survival is reported as 20%. The MRT last stood at 0.813 h in [8] and 2.05 h in data set [31]. Moreover, the inhibition at 2 µg/mL in the data set on Candida albicans [14] came out at 15.6%. This compound also came in with a clearance in data set [16] of 30.4 mL/min/kg. The compound further showed a half-life in [25] of 1 h. For the same compound, the AUC(0-inf) in [27] was determined as 158 ng·h/mL. Besides, the inhibition at 0.5 µg/mL in the data set on Candida albicans [28] stood at 48.7%. Also, the inhibition result with Candida albicans [35] is “Active”. The compound also registered an INH in data set [38] of over 50 µM. Besides, the C0 in data set [40] is 2460 ng/mL.
As for `Oc1c(I)cc(Cl)c2cccnc12` [CLIOQUINOL], the MIC with Candida albicans [41] was found to be 128 µg/mL.

The inhibition is the share of the control response that was lost under treatment. One may read the MIC as the smallest concentration in the dilution series that meets the test's criterion for growth inhibition. The MRT last is the average time that molecules of a dose stay in the body. A word on the clearance: it is a measure of how efficiently the substance is removed, as volume per time. Read a high clearance as efficient removal. What is called half-life is the time needed for the level to fall by half in the phase considered. Read a high half-life as slow loss. By AUC(0-inf) is commonly meant the area under the concentration-time curve extrapolated to infinity. Low values mean low exposure, high ones high exposure.
